US10092596B2, “Tungstate treatment of the dysbiosis associated with gastrointestinal inflammation” (THE REGENTS OF THE UNIVERSITY OF CALIFORNIA, priority 2013, dated 2018)
Like-named read-outs stand apart in the source and are kept apart here.

Experiments:
[1] = tested on: E. coli Nissle 1917 and narG napA narZ mutant; test: Competitive infection of DSS-treated mice with E. coli Nissle 1917 and its nitrate respiration-deficient mutant; assay type: in vivo; conditions: AG in drinking water, five days after infection
Procedure: Mice were mock-treated or treated with dextran sulfate sodium (DSS) or DSS+aminoguanidine (AG) and infected with equal mixtures of the indicated E. coli strains. Five days after infection, the ratio of wild-type (wt) and mutant recovered from colon contents was determined (competitive index). Bars represent geometric means±standard error.
Next, mock-treated mice (C57BL/6) or mice with DSS-induced colitis were inoculated with an equal mixture of E. coli Nissle 1917 and its isogenic nitrate respiration-deficient mutant (competitive infection design). Wild type and nitrate respiration-deficient mutant strains colonized the intestine of normal mice poorly, but similar numbers of each strain were recovered from colon contents (FIG. 2). […] Thus, nitrate respiration enhanced the fitness of E. coli in the inflamed gut.
(§1) Since the fitness advantage conferred by nitrate respiration was abrogated in Nos2-deficent mice (FIG. 2), the ability of inhibiting nitrate respiration in vivo was tested by supplementing the drinking water of mice with the iNOS inhibitor aminoguanidine (AG).

nitrate/nitrite = test: Nitrate/nitrite concentration in the cecal mucus of DSS-treated mice; assay type: in vivo; conditions: AG in drinking water
Source text: Bars represent geometric means±standard error. *, P<0.05; **, P<0.01.
To determine whether the availability of nitrate increases during DSS colitis, the concentration of nitrate/nitrite in the colonic mucus of mock-treated and DSS-treated mice was examined. […] The results supported the idea that the inflammatory host response generates respiratory electron acceptors in the large bowel.
as §1

[2] = Inflammation and morbidity in DSS-treated mice infected with LF82; assay type: in vivo, mice (C57BL/6); conditions: AG or tungstate in water, NAC in chow
Procedure: The development of intestinal inflammation can be followed as described below. The severity of inflammatory changes in the cecum and the colon are assessed by several independent approaches at three, five and seven days after inoculation. First, the relative transcript levels of genes encoding neutrophil chemoattractants (i.e., genes encoding the CXC-chemokines Kc and the Mip2) and iNOS (Nos2) are determined (see, e.g., 62, 64). Second, to monitor, on the protein level, how inflammatory markers increase after DSS treatment, expression levels of iNOS and myeloperoxidase (MPO) are analyzed in protein samples extracted from the colonic mucosa by Western blot using anti-iNOS antibodies (Abcam), anti-MPO antibodies (R&D systems), and anti-tubulin as a loading control (64). Third, concentrations of the neutrophil-specific enzyme MPO in fecal pellets are measured by ELISA. This can serve as an indicator for the degree of neutrophil transmigration into the intestinal lumen over time (6, 42). Finally, pathological changes in the colonic mucosa are assessed through standardized, blinded scoring of formalin-fixed, hematoxylin and eosin-stained sections by a veterinary pathologist (64).

neutrophils [3] = conditions: in vivo; cited from earlier work
neutrophils [4] = conditions: in vitro; cited from earlier work
nitrate reductase = test: Nitrate reductase activity in E. coli Nissle 1917 cultures (modified Griess assay); assay type: cell-based; conditions: LB broth with 40 mM nitrate, microaerobic, 3 h at 37° C.; versus mock-treated cultures
Source text: In E. coli, the respiratory reductases for nitrate, DMSO and TMAO as well as the formate dehydrogenases FdnG and FdoG contain molybdenum (Mo) as a key catalyst for electron transfer reactions (7). The functions of FdnG and FdoG are linked to respiration, because these two formate dehydrogenases couple respiratory electron acceptors to the electron donor formate, a fermentation end product present in the large intestine. Formate dehydrogenases and respiratory reductases contain Mo within a molybdopterin cofactor. Tungsten (W) has chemical properties similar, but not identical, to Mo. […] To test whether the addition of W (as the soluble sodium salt Na2WO4; sodium tungstate) to bacterial growth media can inhibit anaerobic nitrate respiration, aliquots of LB broth supplemented with 40 mM nitrate and varying concentrations of tungstate were inoculated with the E. coli Nissle 1917 wild-type strain and incubated under microaerobic conditions for 3 h at 37° C. (3). Nitrate reductase activity was assayed using a modified Griess assay (9) (FIG. 9).

Tnfa = Tnfa transcript levels in the cecal mucosa of DSS-treated mice (real-time PCR); assay type: in vivo; conditions: conventional mice, 4% DSS for 9 days
Source text: (§2) (13A-C) Conventional mice received 4% DSS alone (DSS) or in combination with sodium tungstate (DSS+Na2WO4) for 9 days. (13D) Germ-free mice received 1% DSS or 1% DSS+Na2WO4 for five days. (13A) Average histopathology score from the cecum.
(§3) This reduction was remarkable, because DSS treatment induces cecal inflammation by a mechanism that is only partially dependent on the presence of microbiota (10). In other words, DSS treatment causes inflammation in germ-free mice, but inflammation is exacerbated by the presence of microbiota. Thus, by inhibiting the microbiota-dependent component of inflammation, one can only expect to achieve a reduction in inflammation, but not a resolution of inflammation. Thus, given the marked pathology observed in DSS-treated germ-free mice (10), the reduction of cecal pathology after tungsten treatment was remarkable.

AIEC strain LF82 = conditions: DSS-treated mice infected with LF82, tungstate in water
Procedure: Groups of 6 DSS-treated mice (C57BL/6) were provided with water or water supplemented with AG or tungstate and fed regular chow or chow supplemented with NAC. Mice were then inoculated with wild-type LF82 or sterile medium (mock-infection) and organs were collected at three, five and seven days after infection.
In addition, colony forming units (CFU) of E. coli are determined by spreading homogenates of colon contents on plates containing the appropriate antibiotics (all LF82 derivatives are marked with a kanamycin resistance cassette inserted downstream of the lac operon).

[5] = tested on: facultative anaerobic bacteria; test: Microbial community profiling in mouse colitis models (16S rRNA gene sequences); assay type: in vivo; conditions: mice with severe colitis (DSS or oxazolone) treated with tungstate
Source text: To investigate whether changes in the microbial communities that develop during inflammation are due to anaerobic respiration, the temporal dynamics of the entire gut community can be monitored in mouse models of colitis. In particular, colitis can be induced by DSS treatment or hapten-induced (oxazolone-treatment) in wild type and Nos2-deficient mice, including those that are additionally exposed to tungstate, AG, or NAC. The experiments can be performed as follows.
Wild type mice (C57BL/6) and Nos2-deficient mice are co-housed for two weeks to reduce the variation in the microbial community structure prior to inducing inflammation. Feces are collected from all animals for DNA isolation to establish a baseline of the microbiota composition at the beginning of the experiment. Six mice from each mouse strain (C57BL/6 mice or Nos2-deficient mice) are euthanized to isolate bacterial DNA from cecal and colon contents and to establish a baseline for inflammatory host responses using the methods described above (see, Section 5). Groups of mice from each mouse strain (e.g., C57BL/6 mice or Nos2-deficient mice) are treated with 4% DSS in drinking water or are “mock-treated” (i.e., mice will receive drinking water without DSS). […]
The development of intestinal inflammation is monitored using methods described above (see, Section 5). […]

Kc [6] = test: Kc transcript levels in the cecal mucosa of DSS-treated conventional mice (real-time PCR); assay type: in vivo; conditions: 4% DSS for 9 days
Source text: as §2, §3

[7] = oral, 100 mg twice a day for 6 weeks, cited from earlier work
[8] = Body weight in the DSS-colitis model; assay type: in vivo, C57BL/6 mice; conditions: 3% DSS, tungstate 0.2% in drinking water, after 8 days of DSS treatment
Source text: To determine whether the administration of soluble tungsten (W) salts can abolish anaerobic respiration and thus blunt the bloom of Enterobacteriaceae in vivo, a murine model of chemically-induced colitis, the dextran sulfate sodium (DSS) colitis model, was employed. Oral administration of DSS in the drinking water induces a vigorous intestinal inflammatory response that is accompanied by a bloom of commensal Enterobacteriaceae (3). Groups of C57BL/6 mice received DSS-supplemented (2 or 3%) drinking water or received DSS-supplemented (2 or 3%) drinking water with sodium tungstate (0.2%) added. After onset of inflammation (4 days after start of the treatment), mice were intragastrically inoculated with a 1:1 mixture of the E. coli Nissle 1917 wild-type and an isogenic moaA mutant deficient for molybdopterin cofactor biosynthesis. Utilization of these non-pathogenic indicator strains allows a determination of the growth advantage conferred through anaerobic respiration by comparing colonization with the wild-type strain with an anaerobic respiration-deficient mutant (moaA mutant) (3). 5 days after inoculation of mice, animals were euthanized and colonization with the E. coli indicator strains determined by cultivation on selective media (each of the strains is marked with a different antibiotic resistance gene) (FIG. 10). […]

[9] = Histopathology score of the cecum in DSS-treated conventional mice; assay type: in vivo; conditions: 4% DSS for 9 days, blinded scoring
Source text: as §2, §3

Kc [10] = test: Kc transcript levels in the cecal mucosa of DSS-treated germ-free mice; assay type: in vivo; conditions: 1% DSS, 5 days after the beginning of DSS treatment
Procedure: as §2
The key experiment to distinguish between these two possibilities is to test whether tungstate treatment reduces inflammation in germ-free mice. To this end, groups of four germ-free mice were treated with 1% DSS, 1% DSS+sodium tungstate, or drinking water without supplementation.

[11] = tested on: E. coli Nissle 1917 wild-type and moaA mutant; test: DSS colitis model, colonization with E. coli indicator strains (wild-type and moaA mutant, 1:1); assay type: in vivo
Source text: To determine whether the administration of soluble tungsten (W) salts can abolish anaerobic respiration and thus blunt the bloom of Enterobacteriaceae in vivo, a murine model of chemically-induced colitis, the dextran sulfate sodium (DSS) colitis model, was employed. Oral administration of DSS in the drinking water induces a vigorous intestinal inflammatory response that is accompanied by a bloom of commensal Enterobacteriaceae (3). Groups of C57BL/6 mice received DSS-supplemented (2 or 3%) drinking water or received DSS-supplemented (2 or 3%) drinking water with sodium tungstate (0.2%) added. After onset of inflammation (4 days after start of the treatment), mice were intragastrically inoculated with a 1:1 mixture of the E. coli Nissle 1917 wild-type and an isogenic moaA mutant deficient for molybdopterin cofactor biosynthesis. Utilization of these non-pathogenic indicator strains allows a determination of the growth advantage conferred through anaerobic respiration by comparing colonization with the wild-type strain with an anaerobic respiration-deficient mutant (moaA mutant) (3). 5 days after inoculation of mice, animals were euthanized and colonization with the E. coli indicator strains determined by cultivation on selective media (each of the strains is marked with a different antibiotic resistance gene) (FIG. 10).
To further test the efficacy of tungstate treatment, E. coli indicator strains that were either proficient for anaerobic respiration (E. coli Nissle 1917 wild-type) or deficient for nitrate respiration, DMSO respiration, and TMAO respiration due to a mutation in one of the molybdopterin cofactor biosynthesis genes (E. coli Nissle 1917 moaA mutant) were used. Groups of mice with DSS-induced colitis were inoculated with an equal mixture of both E. coli indicator strains (i.e., wild-type and moaA mutant) and received either regular water (vehicle control) or drinking water containing 2 g/l sodium tungstate (Na2WO4×2H2O; Sigma-Aldrich, St. Louis, Mo., USA) to receive a calculated average dose of 130 mg/kg/day (assuming 2.6 ml of water intake per day for each animal). These experiments determined whether anaerobic respiration would provide a fitness advantage upon the E. coli wild-type over the moaA mutant in the inflamed intestine of DSS-treated mice. Furthermore, if tungstate treatment would inhibit anaerobic respiration, these experiments determined whether this fitness advantage would be eliminated and both strains would be recovered at a 1:1 ratio. In other words, the use of E. coli indicator strains as described herein enabled the determination of whether tungstate treatment would block growth by anaerobic respiration in vivo.

[12] = sodium tungstate 0.2% in drinking water, DSS 2 or 3%, 5 days after inoculation

N=C(N)NN [AG, aminoguanidine]
fitness advantage conferred by nitrate respiration (competitive index) [1]: abrogated the fitness advantage | availability of nitrate/nitrite in the large bowel (nitrate/nitrite): markedly reduced | inflammation and morbidity [2]: intermediate effect

CC(=O)N[C@@H](CS)C(=O)O [NAC, N-acetylcysteine]
oxidative burst activity of neutrophils (neutrophils [3]): suppress the oxidative burst activity | concentration that almost completely inhibits the oxidative response of neutrophils to E. coli (neutrophils [4]): 76 mM | inflammation and morbidity [2]: intermediate effect

[Na+].[Na+].[O]=[W](=[O])([O-])[O-] [sodium tungstate]
tungstate concentration at which nitrate reductase activity was significantly reduced (nitrate reductase): exceeding 10 ng/ml | transcript levels of Tnfa in the cecal mucosa (Tnfa): blunting of transcript levels | growth of AIEC by anaerobic respiration (AIEC strain LF82): reduction in the growth of AIEC | increased abundance of facultative anaerobic bacteria associated with inflammation [5]: not observed | induction of Kc in the cecal mucosa (Kc [6]): abrogated induction | inflammation and morbidity [2]: reducing inflammation and morbidity | body weight ([7]; human obesity): did not reduce body weight | safety parameters ([7]; human): not associated with abnormal safety parameters | body weight [8]: > 90 % of starting weight | overall pathology score of the cecal mucosa [9]: significant (P<0.05) reduction | levels of pro-inflammatory cytokines (Kc transcript) (Kc [10]): did not reduce | absolute numbers of E. coli recovered from colon contents (bloom) ([11]; DSS+Na2WO4 versus DSS alone, FIG. 12B): prevented facultative anaerobic bacteria from blooming | competitive index (ratio of wild-type to moaA mutant) recovered from colon contents ([11]; DSS-induced colitis, drinking water with 2 g/l sodium tungstate (130 mg/kg/day)): both strains were recovered in equal numbers | recovery of wild-type versus moaA mutant from colon content [11, 12]: both strains were recovered at similar numbers | total number of E. coli indicator strains recovered from colon content [11, 12]: significantly diminished
